Columns and labels:
[1] = system: rat optic nerve derived OPCs; assay: cell-based OPC differentiation assay quantifying % MBP-positive OLs by immunofluorescence after 6 days of treatment; details: for effect on % T3-induced MBP+OLs in combination with bexarotene (phenocopy of tasin-1, tamoxifen, LXR antagonist): heat maps, average n=3; for activity in enhancing OPC differentiation alone: single agent, without RXR activation
Excerpt: Combination-based screening and evaluation of LXR modulators. Pairwise screening of bexarotene and partner compounds was done in matrices of 9-12 doses for each and transferred onto 3 separate 384-well plates. […] Heat maps were generated using Prism to highlight impact of the combinations relative to baseline controls.
We evaluated various reported inhibitors of CYP51, TM7SF2 and EBP for their ability to enhance bexarotene-induced remyelination. We quantified activity based on immunofluorescence analysis of % MBP+OLs after 6 days of compound treatment, with vehicle/DMSO, clemastine and triiodothyronine (T3) controls on each plate using rat optic nerve derived OPCs.

[2] = dose of bexarotene used in the CCMR One trial; read-out: predicted Cmax; cited from earlier work
LXR = assay: confocal imaging and line profile analysis of LXR localization in OPCs/oligodendrocytes; assay type: cell-based; details: 6 days of treatment; immunofluorescence, confocal imaging
Description: Confocal imaging and analysis of LXR expression. […] OPCs were then seeded at a density of 1,000 cells per well, and the plates were incubated at 37° C. with 5% CO2 for 6 d. On day 6, cells were then fixed for 20 min with 4% formaldehyde solution and stained with anti-LXRalpha/beta antibody (cat. #sc-271064, Santa Cruz Biotechnology) in 3% BSA, 0.3% Triton X-100 with overnight incubation at 4° C. The cells were washed and incubated with secondary antibody (Alexa Fluor 488 goat anti-mouse IgG, Life Technologies) and Hoechst 33342 (Invitrogen) for 1 h at room temperature. The cells were washed and plates were sealed and imaged using a Cellomics Cell Insight imaging reader (Thermo). Randomly-selected fields from 6 wells selected at random were imaged at 50× magnification using a Zeiss 780 confocal microscope. 10 cells within images from each treatment group were randomly selected for line profile analysis.
A line profile analysis of fluorescent intensities was performed by drawing an 18.5 μm line through the center of individual cells (n=10), from approximately 2-4 microns beyond the nuclear membrane on each side using the Fiji image processing platform. Fluorescence intensities over distance (μm) was graphed using Prism 9 software (GraphPad).

[3] = 20 mg daily dose of tamoxifen; cited from earlier work

| SMILES | effect on % T3-induced MBP+OLs in combination with bexarotene (phenocopy of tasin-1, tamoxifen, LXR antagonist) [1] | activity in enhancing OPC differentiation alone [1] | localization of LXR following treatment (LXR) | other results |
| --- | --- | --- | --- | --- |
| CC(C)=CCC[C@@H](C)[C@H]1CC=C2C3=C(CC[C@@]21C)[C@@]1(C)CC[C@H](O)C(C)(C)[C@@H]1CC3 [FF-MAS, Follicular fluid meiosis-activating sterol] | combines with bexarotene (RXRg agonist) to phenocopy tasin-1, tamoxifen, or an LXR antagonist | – | – | – |
| Cc1cc(C)c(S(=O)(=O)N(CCc2cccc(Br)c2)Cc2ccc(-c3cccc(S(C)(=O)=O)c3)cc2)c(C)c1 [SR9243] | phenocopies GSK2033, FFMAS, tasin-1 and tamoxifen | – | – | – |
| CC(C)=CCC[C@@H](C)[C@H]1CC[C@H]2C3=C(CC[C@]12C)[C@@]1(C)CC[C@H](O)C[C@@H]1CC3 [Zymosterol] | phenocopies tasin-1, tamoxifen and LXR agonists | – | – | – |
| C=C(c1ccc(C(=O)O)cc1)c1cc2c(cc1C)C(C)(C)CCC2(C)C [bexarotene] | – | – | – | cell-based OPC differentiation ECmax of bexarotene (concentration required to achieve optimal activity) ([1]; bexarotene combined with tamoxifen): ~150 nM; Cmax [2]: 2600 nM |
| CC/C(=C(\c1ccccc1)c1ccc(OCCN(C)C)cc1)c1ccccc1 [tamoxifen] | – | minimally active | significant shift in localization of LXR | steady state plasma concentration [3]: 834 nM |
| COc1ccc(S(=O)(=O)N2CCC(N3CCC(C)CC3)CC2)cc1 [tasin-1] | – | minimally active | significant shift in localization of LXR | – |

Reference: US20250319078A1, “METHOD FOR SYNERGISTIC ENHANCEMENT OF REMYELINATION VIA MODULATION OF RXR AND A HETERODIMERIC PARTNER” (THE SCRIPPS RESEARCH INSTITUTE, priority 2022, published 2025)
